Data as given in patent publication US20220127258A1, “AROMATIC RING OR HETEROAROMATIC RING COMPOUNDS, PREPARATION METHOD THEREFOR AND MEDICAL USE THEREOF” (The National Institutes of Pharmaceutical R&D Co., Ltd., priority 2019, published 2022).
Where two headings read alike, the source gives them in different places.

Columns and labels:
[1] = molecular target: T1, FXR (Homo sapiens, UniProt Q96RI1); assay: FXR agonistic activity, luciferase assay; type: cell-based; conditions: luc2P-GAL4-HEK293 cells transfected with pBIND-FXR, 24 hours
T1 sequence (Q96RI1 262-486 limits assumed): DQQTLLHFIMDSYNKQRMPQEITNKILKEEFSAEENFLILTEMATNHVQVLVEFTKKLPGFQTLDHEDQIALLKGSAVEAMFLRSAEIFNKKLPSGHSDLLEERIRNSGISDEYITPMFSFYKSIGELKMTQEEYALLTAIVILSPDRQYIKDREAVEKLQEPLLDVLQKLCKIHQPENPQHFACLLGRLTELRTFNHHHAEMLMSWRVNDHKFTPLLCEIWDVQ
Experimental: The FXR agonistic activity of the compound of the present invention was evaluated using the luciferase assay.
The experimental process comprises the follows. The luc2P-GAL4-HEK293 stably transfected cell line (the cell line was established by transfecting pGL4.35 plasmid with HEK293 cells which was then subjected to Hygromycin B screening. The cell contained 9×GAL4 UAS and firefly luciferase reporter gene. The ligand-activated LBD-GAL4 DBD fusion protein can enter the nucleus to bind to 9×GAL4 UAS and activate the transcription of the downstream luciferase reporter gene) was transferred to a 96-well plate with […] per well. pBIND-FXR (Which was constructed by inserting FXR-LBD into pFN26A-BIND hRluc-neo Flexi® vector. The plasmid was 7.5 kb in size, Amp resistant, contained FXR-LBD, and can express FXR-LBD and GAL4 DBD fusion proteins) was transfected using X-tremeGENE HP transfection reagent. The ratio of plasmid to transfection reagent was 1 μg: 2 μl. The specific amount was 100 ng of plasmid and 0.2 μl of X-tremeGENE HP transfection reagent per well. The test compounds (the highest concentration of each compound was 30 μM, 3-fold dilution, a total of 10 concentrations) were added to induce the expression of luciferase. After 24 hours, the 96-well plate containing the test cells was taken out from the incubator, and placed at room temperature. Dual-Glo® Luciferase Reagent with the volume equal to the volume of the medium in the well (80 μl/well) was added to each well and mixed well. The plate was incubated at room temperature for 20 minutes to allow the cells to be fully lysed. All the liquid in the plate was transferred to a 96-well microtiter plate, and the firefly luciferin value was measured with a multi-function plate reader (manufacturer: Bio Tek (USA); model: Synergy4). Dual-Glo® a Stop & Glo® Reagent with the volume equal to the volume of the initial medium (80 μl/well) was added to each well and mixed well. The plate was incubated at room temperature for 10 minutes, and the renilla luciferin value was measured. The measurement order of renilla fluorescence should be the same as that of firefly fluorescence. Curve fitting and EC50 calculation were conducted using GraphPad Prism 5 software by nonlinear regression method. The fitting equation is: Y=Bottom+(Top−Bottom)/(1+10^((Log EC50−X)*HillSlope)), wherein EC50 refers to the semi-effective concentration, Top refers to the maximum effect, Bottom refers to the blank effect, and HillSlope refers to the slope.

[2] = Plasma and liver concentration of the compound after 4 days of administration in the cholestasis rat induced by ANIT; type: in vivo, SD rats; conditions: for Liver concentration of the compound / concentration at 4 h / Kp at 4 h: 4 h; for concentration at 2 h / concentration at 4 h / Kp at 2 h / Kp at 4 h: SD, oral; for Kp at 2 h / Kp at 4 h: liver/plasma
Experimental: Sample formulation: The compound of the present invention was added to DMSO, and dissolved completely by ultrasound. 0.5% CMC-Na was added to constant volume (DMSO: 0.5% CMC-Na=1:99), and the solution was homogenized by ultrasound for later use. After 3 to 5 days of acclimation, the animals were divided into 20 groups according to body weight: normal group, model group, Example 8 (3 mg/kg/d, 10 mg/kg/d) group, Example 11 (3 mg/kg/d, 10 mg/kg/d) group, Example 12 (3 mg/kg/d, 10 mg/kg/d) group, Example 14 (3 mg/kg/d, 10 mg/kg/d) group, Example 20 (3 mg/kg/d, 10 mg/kg/d) group, Example 22 (3 mg/kg/d, 10 mg/kg/d) group, Example 26 (3 mg/kg/d, 10 mg/kg/d) group, Example 28 (3 mg/kg/d, 10 mg/kg/d) group, and Example 29 (3 mg/kg/d, 10 mg/kg/d) group, with 10 rats for each group. Intragastric administration was conducted with an administration volume of 10 mL/kg, once a day, for a total of 4 days. On Day 2, ANIT (1-naphthyl isothiocyanate, Macklin, purity: 98%, item number: N814658, CAS number: 551-06-4, specification: 5 g/bottle, storage conditions: 2 to 8 degrees, batch number: C10116101) with a dose of 50 mg/kg and an administration volume of 5 mL/kg was administered intragastrically once to each animal (except for animals in the normal group) 4 hours after the administration. The animals were fasted on Day 4 morning. The animals were anesthetized by isoflurane inhalation using a small animal anesthesia machine. Blood was collected from the venous plexus behind the eyeball using a capillary glass tube (about 1 ml per animal), and then left to stand for about one hour. It was centrifuged at 3500 rpm for 10 minutes to obtain the serum. ALT, AST, GGT and TBA indexes as well as the plasma concentration of the compound were determined using an AU480 automatic biochemical analysis system (BECKMAN COULTER). Liver was collected, weighed, and cutted into pieces. Normal saline was added (liver weight: normal saline=1:2), and the mixture was homogenized and freezed. The concentration of the compound in liver was determined using an ultra performance liquid chromatograph (Shimadzu, LC 30AD) and triple quadrupole mass spectrometer (AB, TQ5500). The plasma concentration and liver concentration of the compound of the present invention after 4 days of administration in the cholestasis rat induced by ANIT are shown in Table 3, Table 4 and Table 5 below.

[3] = liver, 3 mg/kg/day, 3 mg/kg/d, read-out: Liver concentration of the compound
[4] = liver, 10 mg/kg/day, 10 mg/kg/d, read-out: Liver concentration of the compound
[5] = plasma, 3 mg/kg/day, 3 mg/kg/d, read-out: Plasma concentration of the compound
[6] = plasma, 10 mg/kg/day, 10 mg/kg/d, read-out: Plasma concentration of the compound

SMILES	EC50 [1] [nM]	Liver concentration of the compound ([2]; 10 mg/kg/d)	concentration at 2 h [2, 3] [ng/g]	concentration at 4 h [2, 3] [ng/g]	concentration at 2 h [2, 4] [ng/g]	Kp at 2 h ([2]; 3 mg/kg/day, 3 mg/kg/d)	Kp at 4 h ([2]; 3 mg/kg/day, 3 mg/kg/d)	Kp at 2 h ([2]; 10 mg/kg/day, 10 mg/kg/d)	Kp at 4 h ([2]; 10 mg/kg/day, 10 mg/kg/d)	concentration at 2 h [2, 5] [ng/mL]	concentration at 4 h [2, 5] [ng/mL]	concentration at 2 h [2, 6] [ng/mL]	concentration at 4 h [2, 6] [ng/mL]	concentration at 4 h [2, 4] [ng/g]
O=C(O)c1ccc(-c2nnc(N3[C@@H]4CC[C@H]3C[C@@H](OCc3c(-c5c(Cl)cccc5Cl)noc3C3CC3)C4)o2)s1 [Example 11]	100 to 500	3,614.0 ± 1,961.3 ng/g	1590	1520	5660	3.9 ± 1.4	6.2 ± 3.9	9.5 ± 9.1	15.5 ± 12.7	401 ± 98.4	340 ± 253	1160 ± 1040	664 ± 739	–
Cc1cc(C(=O)O)ccc1-c1nnc(N2[C@@H]3CC[C@H]2C[C@@H](OCc2c(-c4c(Cl)cccc4Cl)noc2C2CC2)C3)o1 [Example 14]	< 25	5,093.6 ± 2,197.5 ng/g	1240	1150	7840	7.4 ± 1.5	7.1 ± 1.6	21 ± 4.4	19.8 ± 7	168 ± 111	172 ± 75.3	402 ± 238	250 ± 72.4	–
O=C(O)c1ccc(-c2nnc(N3[C@@H]4CC[C@H]3C[C@@H](OCc3c(-c5ccccc5OC(F)(F)F)noc3C3CC3)C4)o2)cc1 [Example 22, 4-(5-((1R,3r,5S)-3-((5-cyclopropyl-3-(2-(trifluoromethoxy)phenyl)isoxazol-4-yl)methoxy)-8-azabicyclo[3.2.1]octan-8-yl)-1,3,4-oxadiazol-2-yl)benzoic acid]	< 25	–	3760	3090	12300	16.1 ± 10.9	14.4 ± 6.5	14.2 ± 2.1	19.2 ± 6.9	440 ± 481	278 ± 192	903 ± 348	567 ± 242	9660
O=C(O)c1ccc(-c2nnc(N3[C@@H]4CC[C@H]3C[C@@H](OCc3c(-c5c(Cl)cccc5Cl)noc3C3CC3)C4)o2)cc1 [Example 8, 4-(5-((1R,3r,5S)-3-((5-cyclopropyl-3-(2,6-dichlorophenyl)isoxazol-4-yl)methoxy)-8-azabicyclo[3.2.1]octan-8-yl)-1,3,4-oxadiazol-2-yl)benzoic acid]	< 25	–	752 ± 419	1190 ± 162	986 ± 355	43.9 ± 65.2	61 ± 107	54.9 ± 37	105 ± 48.6	44.6 ± 36.9	130 ± 120	50.4 ± 74.4	16.7 ± 16.4	1190 ± 265
